Literature values as cited in patent US20060052448A1, “Use of methyl pyruvate or methyl pyruvic acid for the treatment of diseases of the nervous system and for protecting a human central nervous system against neuronal degeneration caused by defective intracellular energy production” (priority 2004, published 2006).
Like-named read-outs stand apart in the source and are kept apart here.

Experiments:
[1] = tested on: porcine carotid artery strips
[2] = tested on: Na(+)-K(+)-ATPase; settings: 10 microM
[3] = tested on: malate-aspartate shuttle; settings: mGPDH-deficient islets, both shuttles halted
[4] = tested on: malate-aspartate shuttle
[5] = tested on: pancreatic beta-cells
[6] = tested on: pancreatic beta-cells; remark: listed apart in the source
[7] = tested on: isolated beta-cell mitochondria; settings: in combination with glutamate
[8] = tested on: whole islets; settings: 5 mM
[9] = target: T1, K(ATP) channels (Homo sapiens, UniProt Q09428+Q14654)
T1 construct: endogenous in cells
T1 sequence (Q14654 whole entry): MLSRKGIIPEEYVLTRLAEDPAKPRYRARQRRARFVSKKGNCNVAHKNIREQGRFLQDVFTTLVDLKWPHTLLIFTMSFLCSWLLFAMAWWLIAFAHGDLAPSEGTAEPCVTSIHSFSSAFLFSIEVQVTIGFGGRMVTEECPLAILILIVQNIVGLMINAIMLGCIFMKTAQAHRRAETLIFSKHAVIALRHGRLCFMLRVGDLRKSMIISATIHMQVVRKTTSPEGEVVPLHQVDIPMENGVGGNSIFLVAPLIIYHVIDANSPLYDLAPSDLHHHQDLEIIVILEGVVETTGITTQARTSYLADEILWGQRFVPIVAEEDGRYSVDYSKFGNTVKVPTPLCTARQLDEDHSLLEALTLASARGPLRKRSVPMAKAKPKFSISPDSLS
T1 sequence (Q09428 whole entry): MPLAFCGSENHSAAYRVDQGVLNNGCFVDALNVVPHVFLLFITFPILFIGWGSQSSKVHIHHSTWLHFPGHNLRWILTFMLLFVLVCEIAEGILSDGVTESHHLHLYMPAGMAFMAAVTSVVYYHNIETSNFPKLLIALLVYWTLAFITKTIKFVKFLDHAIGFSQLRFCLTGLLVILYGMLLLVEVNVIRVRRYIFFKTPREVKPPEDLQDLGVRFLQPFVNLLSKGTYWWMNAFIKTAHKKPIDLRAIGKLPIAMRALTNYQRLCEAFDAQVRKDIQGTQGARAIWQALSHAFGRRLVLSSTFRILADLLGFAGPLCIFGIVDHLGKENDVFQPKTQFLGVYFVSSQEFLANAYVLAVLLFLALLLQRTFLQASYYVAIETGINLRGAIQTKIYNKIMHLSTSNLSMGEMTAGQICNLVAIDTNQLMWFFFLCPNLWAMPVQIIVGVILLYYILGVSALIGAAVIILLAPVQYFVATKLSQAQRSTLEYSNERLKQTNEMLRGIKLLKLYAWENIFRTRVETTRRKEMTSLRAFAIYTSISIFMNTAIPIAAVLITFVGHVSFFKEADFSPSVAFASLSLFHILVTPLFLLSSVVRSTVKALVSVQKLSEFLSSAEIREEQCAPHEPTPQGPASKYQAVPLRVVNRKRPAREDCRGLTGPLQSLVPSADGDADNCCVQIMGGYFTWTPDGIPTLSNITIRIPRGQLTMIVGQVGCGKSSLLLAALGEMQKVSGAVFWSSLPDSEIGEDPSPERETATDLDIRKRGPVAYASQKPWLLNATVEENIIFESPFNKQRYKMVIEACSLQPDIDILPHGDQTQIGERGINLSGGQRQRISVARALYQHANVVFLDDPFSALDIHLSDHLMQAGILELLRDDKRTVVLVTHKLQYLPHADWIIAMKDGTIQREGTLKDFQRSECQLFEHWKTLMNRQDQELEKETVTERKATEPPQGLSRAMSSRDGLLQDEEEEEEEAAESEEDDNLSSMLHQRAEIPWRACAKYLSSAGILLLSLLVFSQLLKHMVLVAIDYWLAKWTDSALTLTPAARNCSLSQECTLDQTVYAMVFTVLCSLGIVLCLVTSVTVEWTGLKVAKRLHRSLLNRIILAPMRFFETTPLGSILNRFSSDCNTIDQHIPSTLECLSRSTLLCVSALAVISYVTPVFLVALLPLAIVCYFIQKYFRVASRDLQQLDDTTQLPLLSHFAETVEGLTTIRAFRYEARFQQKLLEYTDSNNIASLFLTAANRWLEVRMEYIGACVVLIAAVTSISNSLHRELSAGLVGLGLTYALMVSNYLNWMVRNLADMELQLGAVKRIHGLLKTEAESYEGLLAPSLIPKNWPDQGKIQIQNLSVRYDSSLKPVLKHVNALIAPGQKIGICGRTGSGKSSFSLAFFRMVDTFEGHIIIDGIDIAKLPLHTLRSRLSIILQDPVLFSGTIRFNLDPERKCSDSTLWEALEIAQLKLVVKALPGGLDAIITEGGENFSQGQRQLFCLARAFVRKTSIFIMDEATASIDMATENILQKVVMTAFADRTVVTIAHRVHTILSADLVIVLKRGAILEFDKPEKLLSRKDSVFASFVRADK

[10] = tested on: Jurkat T-lymphocyte mitochondria
[11] = tested on: isolated rat pancreatic islets
[12] = tested on: pancreatic beta-cells; remark: listed apart in the source
[13] = tested on: porcine carotid artery strips; settings: 10 mM in PSS

For [Cl-].[K+] [KCl], the “change in resting tone” value ([1]; 10 mM KCl, glucose-PSS) is listed as -0.8 ± 0.8 g, the “change in resting tone (increased contraction)” value ([1]; 10 mM KCl, lactate-PSS) is listed as 1.5 ± 0.7 g and the “change in resting tone” value ([1]; 10 mM KCl, pyruvate-PSS) is listed as -2.1 ± 0.8 g. The EC50 ([1]; in glucose, read-out: EC50 of KCl concentration-response curve) was 32.1 ± 0.9 mM.

In the case of C[C@@H]1O[C@@H](O[C@H]2C[C@@H](O)[C@]3(CO)[C@H]4[C@H](O)C[C@]5(C)[C@@H](C6=CC(=O)OC6)CC[C@]5(O)[C@@H]4CC[C@]3(O)C2)[C@H](O)[C@H](O)[C@H]1O [ouabain], the “glycolysis and lactate production” value [2] is listed as “decreased glycolysis and lactate production”.

For NOCC(=O)O [amino-oxyacetic acid], the glucose-induced insulin secretion [3] is listed as “almost completely abrogated” and the “negative shift in cytosolic NAD+/NADH redox potential” value [4] is listed as 26 mV.

For COC(=O)C(C)=O [methyl pyruvate], the “increase in insulin secretion relative to that induced by glucose” value [5] is listed as 6 fold, the “concentration of maximal effect on insulin secretion” value ([5]; absence of glucose) is listed as 5 mM and the “depolarization of the beta-cell membrane potential” value ([6]; 5-20 mM) is listed as “depolarized the beta-cell in a concentration-dependent manner”. The electrical activity ([6]; in the presence of 0.5 mM glucose) was “elicited electrical activity”, the “ATP production (accumulation of ATP in the medium)” value [7] was “higher than that induced by pyruvate/glutamate” and the “effect on ATP/ADP ratio in whole islets” value [8] was “no effect”. The “K(ATP) current in standard whole-cell configuration” value [9] was “inhibited”, the “block of KATP” value [9] was “produced a block of KATP” and the “single-channel currents in inside-out patches” value [9] was “blocked”. For the same compound, the “cation current across the inner mitochondrial membrane” value [10] was “directly inhibited”, the “high concentration of the methyl ester giving negative insulinotropic action” value ([11]; and/or high D-glucose (16.7 mM)) was 20.0 mM and the “concentration of the ester at which positive insulinotropic action prevailed” value ([11]; low D-glucose, 2.8 to 8.3 mM) was at most 10.0 mM. For the same compound, the “ATP production or ATP/ADP ratio” value [12] was “did not influence”, the “NAD(P)H autofluorescence” value [12] was “slightly decreased” and the “NADH and NADPH response (NAD(P)H imaging and LipDH autofluorescence)” value [12] was “stimulated a robust NADH and NADPH response”. The “cytosolic free Ca(2+) concentration” value ([12]; after an initial decrease) was “increased”.

For CC(O)C(=O)O (stereo not drawn) [lactate], the “increase in O2 consumption” value [13] is given as “without effect”.
